Test results as given in patent US20030040486A1 (priority 2001, published 2003).

Columns and labels:
male Sprague-Dawley rats [1] = experiment: Rat hindpaw withdrawal latency (HWL) to thermal stimulation, hot-plate test; format: in vivo; conditions: for HWL increase using thermal stimulation: drug alone, intrathecal, FIGS. 2A and 2B; for % Changes of HWL to Thermal Stimulation: intrathecal every 12 hrs: morphine 8 μg, nociceptin 10 nmol, or rotated every two days
male Sprague-Dawley rats [2] = experiment: Development of tolerance in the rat HWL study (thermal and mechanical stimulation); format: in vivo; conditions: for time to complete tolerance: intrathecal every 12 hrs, both hindpaws, thermal and mechanical HWL
male Sprague-Dawley rats [3] = experiment: Rat hindpaw withdrawal latency (HWL) to mechanical stimulation, Randall Selitto Test; format: in vivo; conditions: for HWL increase using mechanical stimulation: drug alone, intrathecal, FIGS. 2C and 2D; for % Changes of HWL to Mechanical Stimulation: intrathecal every 12 hrs: morphine 8 μg, nociceptin 10 nmol, or rotated every two days
μ-opioid receptors = conditions: Hao et al. 1997; cited from earlier work
[4] = intrathecal administration; Jhamandas et al. 1998; cited from earlier work

SMILES: CN1CC[C@]23c4c5ccc(O)c4O[C@H]2[C@@H](O)C=C[C@H]3[C@H]1C5 [Morphine, morphine]
- HWL increase using thermal stimulation (male Sprague-Dawley rats [1]; day 1): approximately 67%
- time to complete tolerance (male Sprague-Dawley rats [2]): 6 days
- HWL increase using mechanical stimulation (male Sprague-Dawley rats [3]; day 1): ~55%

SMILES: CC(C)C[C@H](NC(=O)[C@H](CCCCN)NC(=O)[C@H](CCCN=C(N)N)NC(=O)[C@H](C)NC(=O)[C@H](CO)NC(=O)[C@H](CCCCN)NC(=O)[C@H](CCCN=C(N)N)NC(=O)[C@H](C)NC(=O)CNC(=O)[C@@H](NC(=O)[C@H](Cc1ccccc1)NC(=O)CNC(=O)CNC(=O)[C@@H](N)Cc1ccccc1)[C@@H](C)O)C(=O)N[C@@H](C)C(=O)N[C@@H](CC(N)=O)C(=O)N[C@@H](CCC(N)=O)C(=O)O [Nociceptin, nociceptin]
- HWL increase using thermal stimulation (male Sprague-Dawley rats [1]; day 1): approximately 90%
- % Changes of HWL to Thermal Stimulation (male Sprague-Dawley rats [1]; day 1, left hindpaw): 93.49 ± 3.77%
- % Changes of HWL to Thermal Stimulation (male Sprague-Dawley rats [1]; day 1, right hindpaw): 90.42 ± 2.65%
- % Changes of HWL to Thermal Stimulation (male Sprague-Dawley rats [1]; day 2, left hindpaw): 39.91 ± 3.66%
- % Changes of HWL to Thermal Stimulation (male Sprague-Dawley rats [1]; day 2, right hindpaw): 43.02 ± 2.12%
- % Changes of HWL to Thermal Stimulation (male Sprague-Dawley rats [1]; day 3, left hindpaw): 9.46 ± 2.31%
- % Changes of HWL to Thermal Stimulation (male Sprague-Dawley rats [1]; day 3, right hindpaw): 12.01 ± 1.48%
- % Changes of HWL to Thermal Stimulation (male Sprague-Dawley rats [1]; day 4, left hindpaw): −2.18 ± 2.07%
- % Changes of HWL to Thermal Stimulation (male Sprague-Dawley rats [1]; day 4, right hindpaw): −3.67 ± 1.61%
- tolerance developed (male Sprague-Dawley rats [2]; by day 2, nociceptin alone group): 50%
- time to complete tolerance (male Sprague-Dawley rats [2]): 4 days
- binding to μ-opioid receptors (μ-opioid receptors): does not bind
- HWL increase using mechanical stimulation (male Sprague-Dawley rats [3]; day 1): 60-70%
- % Changes of HWL to Mechanical Stimulation (male Sprague-Dawley rats [3]; day 1, left hindpaw): 69.90 ± 4.11%
- % Changes of HWL to Mechanical Stimulation (male Sprague-Dawley rats [3]; day 1, right hindpaw): 61.26 ± 3.85%
- % Changes of HWL to Mechanical Stimulation (male Sprague-Dawley rats [3]; day 2, left hindpaw): 31.28 ± 5.03%
- % Changes of HWL to Mechanical Stimulation (male Sprague-Dawley rats [3]; day 2, right hindpaw): 30.79 ± 6.58%
- % Changes of HWL to Mechanical Stimulation (male Sprague-Dawley rats [3]; day 3, left hindpaw): 10.59 ± 0.93%
- % Changes of HWL to Mechanical Stimulation (male Sprague-Dawley rats [3]; day 3, right hindpaw): 10.08 ± 1.05%
- % Changes of HWL to Mechanical Stimulation (male Sprague-Dawley rats [3]; day 4, left hindpaw): −0.62 ± 1.45%
- % Changes of HWL to Mechanical Stimulation (male Sprague-Dawley rats [3]; day 4, right hindpaw): −0.76 ± 2.32%
- duration of the antinociceptive response evoked by intrathecal deltorphin [4]: increase the duration
